Measured values reported in patent publication EP1975159A1, “2,3,4,9-Tetrahydro-1H-carbazoles” (Bayer Schering Pharma Aktiengesellschaft, priority 2007, dated 2008).

Molecular target: T1, human FSH receptor (Homo sapiens, UniProt P23945)
T1 construct: expressed in transfected cells; host or cells: CHO cells (hFSHR clone 16)
T1 sequence (P23945 18-695): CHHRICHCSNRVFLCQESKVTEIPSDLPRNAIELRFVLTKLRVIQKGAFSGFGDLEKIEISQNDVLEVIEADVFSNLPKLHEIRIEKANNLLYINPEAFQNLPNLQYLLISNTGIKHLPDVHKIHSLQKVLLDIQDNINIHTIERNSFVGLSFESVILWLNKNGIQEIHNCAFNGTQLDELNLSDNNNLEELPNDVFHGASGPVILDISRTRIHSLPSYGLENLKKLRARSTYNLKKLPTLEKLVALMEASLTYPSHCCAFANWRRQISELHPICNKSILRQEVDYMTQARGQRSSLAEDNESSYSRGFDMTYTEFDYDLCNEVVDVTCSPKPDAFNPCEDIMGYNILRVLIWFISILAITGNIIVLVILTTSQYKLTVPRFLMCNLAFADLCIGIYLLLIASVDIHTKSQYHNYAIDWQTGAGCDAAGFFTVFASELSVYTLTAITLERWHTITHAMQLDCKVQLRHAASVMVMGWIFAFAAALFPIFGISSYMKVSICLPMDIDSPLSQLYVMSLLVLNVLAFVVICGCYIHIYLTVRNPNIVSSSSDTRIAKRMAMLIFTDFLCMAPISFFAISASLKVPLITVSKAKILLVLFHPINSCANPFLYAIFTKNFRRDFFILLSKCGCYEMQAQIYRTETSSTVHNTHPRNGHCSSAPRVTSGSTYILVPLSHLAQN
Experiment: HTRF assay for measuring cAMP in cells (FSH antagonism)
Format: cell-based
Details: FSH-antagonistic effect; CHO cells stably transfected with the human FSH receptor (hFSHR clone 16); in the presence of 1 e-9 mol/l hFSH; 37°C for 2h
Method: HTRF assay for measuring cAMP in cells
The method is based on a competitive immunoassay between native cAMP, which has been produced by the cells, and cAMP which is labelled with XL665. The tracer binding was visualized by a monoclonal antibody, anti-cAMP labelled with cryptate [HTRF = homogeneous time-resolved fluorescence].
The specific signal is inversely proportional to the cAMP concentration of the samples employed.
The 665nm/ 620nm fluorescence ratio was evaluated.
The following material was used: 96-well plates for the tissue culture, 96-well plates with black edge and black base (e.g. Fluotrac 600 from Greiner), 96-well plates for the substance dilutions of polypropylene and cAMP Femtomolar (4000wells Kit, CIS Bio International # 62AM1PEC).
The following reagents were used: BSA (bovine serum albumin) Fraction V protease-free, IBMX (3-isobutyl-1-methylxanthine), hFSH (human follicle stimulating hormone), Triton X-100 analytical grade, potassium fluoride analytical grade, G 418 (Geneticin) and Accutase.
Buffer 1 (washing and testing buffer) contained PBS, 1 mM CaCl2, 1 mM MgCl2, 0.2% glucose; 0.1% BSA, 1 mM IBMX.
Buffer 2 (2x lysis buffer) contained 1% Triton X-100 in PBS (without CaCl2 and MgCl2).
Buffer 3 (assay buffer) contained 50 mM potassium phosphate buffer (pH 7.0); 800 mM potassium fluoride; 0.2% BSA (always added fresh).
On day 1, the cells were seeded in 96-well plates (3x10^4 cells per well hFSHR clone 16 cells (CHO cells stably transfected with the human FSH receptor in 150 µl of medium). The next day, test substance dilutions were made up. For this purpose, all the substances were diluted in ice-cold buffer 1 (with or without hFSH), and the substance dilutions were placed on ice until applied to the cells.
The cell supernatant was then aspirated off, and the cells were washed 2x with 200 µl of buffer 1. The cells were treated with 60 µl of the appropriate substance concentrations at 37°C for 2h. The cells were then lysed with 60 µl of buffer 2 (put onto the supernatant) (on a plate shaker at RT for 30 min).
The test conjugates (XL-665 and anti-cAMP cryptate) were diluted in buffer 3 in accordance with the manufacturers' information. The actual mixture for measurement was pipetted into a black 96-well plate (in each case 15 µl of the cell lysate diluted with 35 µl of buffer 1; firstly 25 µl of XL-665 conjugate were pipetted and, after 10 min, 25 µl of the anti-cAMP cryptate were added). This is followed by incubation at RT for 90 minutes. The measurement was carried out in a PheraStar (BMG).
Tissue culture conditions
• 1) hFSHr clone 16 Ham's F12 PSG 10% FCS 700 µg/ml G 418 (Geneticin) from PAA.
Dose-effect curve (hFSH) for the human receptor: 1 e-8, 3e-9, 1 e-9, 3e-10, 1 e-1 0, 3e-11, 1 e-11, 3e-12 mol/l.
The test substances were employed in suitable dilutions in the absence (test for agonism) and in the presence of 1 e-9 mol/l hFSH.
The values of the well ratio were averaged and then entered directly in SigmaPlot versus the concentrations. The maximum and minimum values were determined for each plate, and half the difference is to be regarded as IC50.

Row | SMILES | IC50
1 | COc1ccc2nc(-c3ccccc3)cc(C(=O)NC3(CO)CCc4[nH]c5cc(Cl)c(F)cc5c4C3)c2c1 (centres unmarked) [Example 13, 6-Methoxy-2-phenyl-quinoline-4-carboxylic acid (7-chloro-6-fluoro-3-hydroxymethyl-2,3,4,9-tetrahydro-1 H-carbazol-3-yl)-amide] | 8000 nM
2 | COc1ccc(-c2ccc(OC(C)C)c(C(=O)NC3(CO)CCc4[nH]c5c(C)ccc(C)c5c4C3)c2)cc1OC (centres unmarked) [Example 19, 4-Isopropoxy-3',4'-dimethoxy-biphenyl-3-carboxylic acid (3-hydroxymethyl-5,8-dimethyl-2,3,4,9-tetrahydro-1H-carbazol-3-yl)-amide] | 4000 nM
3 | CNC(=O)c1ccc(-c2ccc(OC(C)C)c(C(=O)NC3(CO)CCc4[nH]c5c(Cl)ccc(Cl)c5c4C3)c2)cc1Cl (centres unmarked) [Example 25, 3'-Chloro-4-isopropoxy-biphenyl-3,4'-dicarboxylic acid 3-[(5,8-dichloro-3-hydroxymethyl-2,3,4,9-tetrahydro-1 H-carbazol-3-yl)-amide] 4'-methyl-amide] | 900 nM
4 | CNC(=O)c1ccc(-c2ccc(OC(C)C)c(C(=O)NC3(CO)CCc4[nH]c5c(Cl)cccc5c4C3)c2)cc1Cl (centres unmarked) [Example 30, 3'-Chloro-4-isopropoxy-biphenyl-3,4'-dicarboxylic acid 3-[(8-chloro-3-hydroxymethyl-2,3,4,9-tetrahydro-1H-carbazol-3-yl)-amide] 4'-methylamide] | 200 nM
5 | CNC(=O)c1ccc(-c2ccc(OC(C)C)c(C(=O)NC3(CO)CCc4[nH]c5ccc(C)cc5c4C3)c2)cc1Cl (centres unmarked) [Example 32, 3'-Chloro-4-isopropoxy-biphenyl-3,4'-dicarboxylic acid 3-[(3-hydroxymethyl-6-methyl-2,3,4,9-tetrahydro-1H-carbazol-3-yl)-amide] 4'-methylamide] | 3000 nM
6 | CNC(=O)c1ccc(-c2ccc(OC(C)C)c(C(=O)NC3(CO)CCc4[nH]c5ccc(F)cc5c4C3)c2)cc1Cl (centres unmarked) [Example 33, 3'-Chloro-4-isopropoxy-biphenyl-3,4'-dicarboxylic acid 3-[(6-fluoro-3-hydroxymethyl-2,3,4,9-tetrahydro-1H-carbazol-3-yl)-amide] 4'-methylamide] | 70 nM
7 | CNC(=O)c1ccc(-c2ccc(OC(C)C)c(C(=O)NC3(CO)CCc4[nH]c5ccc(Cl)cc5c4C3)c2)cc1Cl (centres unmarked) [Example 34, 3'-Chloro-4-isopropoxy-biphenyl-3,4'-dicarboxylic acid 3-[(6-chloro-3-hydroxymethyl-2,3,4,9-tetrahydro-1 H-carbazol-3-yl)-amide] 4'-methylamide] | 1500 nM
8 | Cc1ccc2[nH]c3c(c2c1Cl)CC(CO)(NC(=O)c1cc(-c2cc4ccccc4o2)ccc1OC(C)C)CC3 (centres unmarked) [Example 40, 5-Benzofuran-2-yl-N-(5-chloro-3-hydroxymethyl-6-methyl-2,3,4,9-tetrahydro-1H-carbazol-3-yl)-2-isopropoxy-benzamide] | 750 nM
